Paper PMC13050340 (Journal of Computer-Aided Molecular Design, 2026)

Biological target: T1, 3-mercaptopyruvate sulfurtransferase (3-MST) (Homo sapiens, UniProt P25325)
T1 sequence (P25325 2-297): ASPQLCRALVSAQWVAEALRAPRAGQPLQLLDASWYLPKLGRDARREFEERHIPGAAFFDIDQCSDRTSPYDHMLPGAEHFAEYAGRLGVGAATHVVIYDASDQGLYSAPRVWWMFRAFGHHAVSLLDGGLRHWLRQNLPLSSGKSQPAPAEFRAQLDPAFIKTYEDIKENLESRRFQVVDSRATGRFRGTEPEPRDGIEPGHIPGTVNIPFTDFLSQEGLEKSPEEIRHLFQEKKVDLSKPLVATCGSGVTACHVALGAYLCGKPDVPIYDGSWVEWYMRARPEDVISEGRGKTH
Assay: biochemical 3-MST inhibition assay, concentration-response

IC50: 9.59 ± 1.22 µM
Compound: COc1cc2cc(Oc3ccc4ccc(=O)oc4c3)c(=O)oc2cc1O [compound 5, Daphnoretin]
